Data taken from article PMC6990405, “Synthesis and Structure–Activity relationship of 1-(5-isoquinolinesulfonyl)piperazine analogues as inhibitors of Mycobacterium tuberculosis IMPDH” (European Journal of Medicinal Chemistry, 2019).
In brackets after ≈: the same amount, converted by molar mass. Read-outs that look alike come from different tables or passages of the source.

Key:
Mtb IMPDH = biological target: T1, Mtb IMPDH (Mycobacterium tuberculosis, UniProt P9WKI7); experiment: IMPDH biochemical assay (inhibition of Mtb GuaB2); details: Mtb IMPDH (GuaB2) enzyme
T1 construct: made in house

[1] = system: wild-type M. tuberculosis strain H37Rv; experiment: microbe, parasite or virus in culture; type: cell-based
[2] = Mycobacterium tuberculosis, H37RV, wild-type M. tuberculosis H37Rv, read-out: MIC90 against WT
[3] = Mycobacterium tuberculosis, H37RV, read-out: MIC90 against WT, wild-type M. tuberculosis H37Rv
[4] = wild-type M. tuberculosis H37Rv, read-out: MIC90 against WT

T1 sequence (P9WKI7 whole entry, looked up): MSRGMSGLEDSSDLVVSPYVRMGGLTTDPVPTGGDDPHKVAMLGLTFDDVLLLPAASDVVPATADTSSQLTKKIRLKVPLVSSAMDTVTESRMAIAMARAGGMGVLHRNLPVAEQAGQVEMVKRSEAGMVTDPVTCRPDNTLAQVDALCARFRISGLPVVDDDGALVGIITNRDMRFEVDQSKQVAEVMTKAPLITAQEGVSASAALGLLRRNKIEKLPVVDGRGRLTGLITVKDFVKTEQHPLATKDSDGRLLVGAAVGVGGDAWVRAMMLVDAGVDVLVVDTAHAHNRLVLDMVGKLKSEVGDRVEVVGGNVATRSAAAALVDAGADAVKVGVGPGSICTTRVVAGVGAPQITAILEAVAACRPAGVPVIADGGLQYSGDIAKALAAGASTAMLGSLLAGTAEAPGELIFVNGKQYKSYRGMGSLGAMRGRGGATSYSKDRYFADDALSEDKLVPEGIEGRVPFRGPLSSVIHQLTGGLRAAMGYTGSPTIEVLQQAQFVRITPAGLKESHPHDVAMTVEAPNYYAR

SMILES: O=C(C1CCCCC1)N1CCN(S(=O)(=O)c2cccc3cnccc23)CC1 [Compound 1, Cyclohexyl[4-(isoquinoline-5-sulfonyl)piperazin-1-yl]methanone]
- IC50 (Mtb IMPDH): 0.1 ± 0.01 µM
- MIC90 [1, 2]: 2 µM (≈ 0.775 µg/mL)

SMILES: O=C(NCCNS(=O)(=O)c1cccc2cnccc12)C1CCCCC1 [Compound 2, N-{2-[(isoquinoline-5-sulfonyl)amino]ethyl}cyclohexanecarboxamide]
- IC50 (Mtb IMPDH): 0.5 ± 0.02 µM
- MIC90 [1, 3]: 50 µM (≈ 18.1 µg/mL)

SMILES: CC1CN(S(=O)(=O)c2cccc3cnccc23)CCN1C(=O)C1CCCCC1 (stereo not drawn) [Compound 3, Cyclohexyl[4-(isoquinoline-5-sulfonyl)-2-methylpiperazin-1-yl]methanone]
- IC50 (Mtb IMPDH): > 100 µM
- MIC90 [1, 2]: 100 µM (≈ 40.2 µg/mL)

SMILES: O=C(NC1CCN(S(=O)(=O)c2cccc3cnccc23)CC1)C1CCCCC1 [Compound 4, N-[1-(isoquinoline-5-sulfonyl)piperidin-4-yl]cyclohexanecarboxamide]
- IC50 (Mtb IMPDH): 9.7 ± 0.3 µM
- MIC90 [1, 2]: > 100 µM

SMILES: O=C(C1CCCCC1)N1CCC(NS(=O)(=O)c2cccc3cnccc23)CC1 [Compound 5, N-[1-(cyclohexanecarbonyl)piperidin-4-yl]isoquinoline-5-sulfonamide]
- IC50 (Mtb IMPDH): 14.7 ± 0.3 µM
- MIC90 [1, 2]: > 100 µM

SMILES: Cc1cc2c(S(=O)(=O)N3CCN(C(=O)C4CCCCC4)CC3)cccc2cn1 [Compound 6, Cyclohexyl[4-(3-methylisoquinoline-5-sulfonyl)piperazin-1-yl]methanone]
- IC50 (Mtb IMPDH): > 100 µM
- MIC90 [1, 3]: 100 µM (≈ 40.2 µg/mL)
- MIC90 [1, 4]: >100 µM

SMILES: O=C(C1CCCCC1)N1CCN(S(=O)(=O)c2cccc3ccccc23)CC1 [Compound 7, Cyclohexyl[4-(naphthalene-1-sulfonyl)piperazin-1-yl]methanone]
- IC50 (Mtb IMPDH): 3 ± 0.1 µM
- MIC90 [1, 2]: > 100 µM

SMILES: O=C(C1CCCCC1)N1CCN(S(=O)(=O)c2ccc3ccccc3c2)CC1 [Compound 8, Cyclohexyl[4-(naphthalene-2-sulfonyl)piperazin-1-yl]methanone]
- IC50 (Mtb IMPDH): 1.6 ± 0.1 µM
- MIC90 [1, 2]: > 100 µM

SMILES: O=C(NCCNS(=O)(=O)c1cccc2cnccc12)C1CC1 [Compound 9, N-{2-[(isoquinoline-5-sulfonyl)amino]ethyl}cyclopropanecarboxamide]
- IC50 (Mtb IMPDH): 6.9 ± 0.2 µM
- MIC90 [1, 2]: 100 µM (≈ 31.9 µg/mL)

SMILES: O=C(NCCNS(=O)(=O)c1cccc2cnccc12)C1CCC1 [Compound 10, N-{2-[(isoquinoline-5-sulfonyl)amino]ethyl}cyclobutanecarboxamide]
- IC50 (Mtb IMPDH): 2.7 ± 0.1 µM
- MIC90 [1, 2]: 100 µM (≈ 33.3 µg/mL)

SMILES: CC(C)(C)C(=O)N1CCN(S(=O)(=O)c2cccc3cnccc23)CC1 [Compound 11, 1-[4-(isoquinoline-5-sulfonyl)piperazin-1-yl]-2,2-dimethylpropan-1-one]
- IC50 (Mtb IMPDH): 2.8 ± 0.2 µM
- MIC90 [1, 2]: 100 µM (≈ 36.1 µg/mL)

SMILES: CC1(C(=O)N2CCN(S(=O)(=O)c3cccc4cnccc34)CC2)CCCCC1 [Compound 12, [4-(isoquinoline-5-sulfonyl)piperazin-1-yl](1-methylcyclohexyl)methanone]
- IC50 (Mtb IMPDH): 2.4 ± 0.01 µM
- MIC90 [1, 2]: 250 µM (≈ 100 µg/mL)

SMILES: CC1CCCCC1C(=O)N1CCN(S(=O)(=O)c2cccc3cnccc23)CC1 (stereo not drawn) [Compound 13, [4-(isoquinoline-5-sulfonyl)piperazin-1-yl](2-methylcyclohexyl)methanone]
- IC50 (Mtb IMPDH): 0.084 µM
- MIC90 [1, 2]: 31.2 µM (≈ 12.5 µg/mL)

SMILES: O=C(C1CCCCCC1)N1CCN(S(=O)(=O)c2cccc3cnccc23)CC1 [Compound 14, Cycloheptyl[4-(isoquinoline-5-sulfonyl)piperazin-1-yl]methanone]
- IC50 (Mtb IMPDH): 0.83 ± 0.04 µM
- MIC90 [1, 2]: 31.2 µM (≈ 12.5 µg/mL)

SMILES: O=C(c1ccccc1)N1CCN(S(=O)(=O)c2cccc3cnccc23)CC1 [Compound 15, [4-(isoquinoline-5-sulfonyl)piperazin-1-yl](phenyl)methanone]
- IC50 (Mtb IMPDH): 8.1 ± 0.1 µM
- MIC90 [1, 2]: > 100 µM
- MIC90 [1, 4]: >100 µM

SMILES: N#Cc1cccc(C(=O)N2CCN(S(=O)(=O)c3cccc4cnccc34)CC2)c1 [Compound 16, 3-[4-(isoquinoline-5-sulfonyl)piperazine-1-carbonyl]benzonitrile]
- IC50 (Mtb IMPDH): 8.6 ± 0.5 µM
- MIC90 [1, 2]: 25 µM (≈ 10.2 µg/mL)

SMILES: N#Cc1ccc(C(=O)N2CCN(S(=O)(=O)c3cccc4cnccc34)CC2)cc1 [Compound 17, 4-[4-(isoquinoline-5-sulfonyl)piperazine-1-carbonyl]benzonitrile]
- IC50 (Mtb IMPDH): 16.5 ± 0.5 µM
- MIC90 [1, 2]: 100 µM (≈ 40.6 µg/mL)

SMILES: O=C(c1cccc([N+](=O)[O-])c1)N1CCN(S(=O)(=O)c2cccc3cnccc23)CC1 [Compound 18, [4-(isoquinoline-5-sulfonyl)piperazin-1-yl](3-nitrophenyl)methanone]
- IC50 (Mtb IMPDH): 1.1 ± 0.1 µM
- MIC90 [1, 2]: 12.5 µM (≈ 5.33 µg/mL)

SMILES: O=C(c1cc([N+](=O)[O-])cc([N+](=O)[O-])c1)N1CCN(S(=O)(=O)c2cccc3cnccc23)CC1 [Compound 19, [4-(isoquinoline-5-sulfonyl)piperazin-1-yl](3,5-dinitrophenyl)methanone]
- IC50 (Mtb IMPDH): 1.4 ± 0.01 µM
- MIC90 [1, 2]: 12.5 µM (≈ 5.89 µg/mL)

SMILES: COc1cc(C(=O)N2CCN(S(=O)(=O)c3cccc4cnccc34)CC2)cc(OC)c1OC [Compound 20, [4-(isoquinoline-5-sulfonyl)piperazin-1-yl](3,4,5-trimethoxyphenyl)methanone]
- IC50 (Mtb IMPDH): 12 ± 0.5 µM
- MIC90 [1, 2]: 15.6 µM (≈ 7.36 µg/mL)

SMILES: O=C(NCCNS(=O)(=O)c1cccc2cnccc12)c1cc([N+](=O)[O-])cc([N+](=O)[O-])c1 [Compound 21, N-{2-[(isoquinoline-5-sulfonyl)amino]ethyl}-3,5-dinitrobenzamide]
- IC50 (Mtb IMPDH): 0.3 ± 0.02 µM
- MIC90 [1, 2]: 15.6 µM (≈ 6.95 µg/mL)

SMILES: O=C(CC1CCCCC1)N1CCN(S(=O)(=O)c2cccc3cnccc23)CC1 [Compound 22, 2-Cyclohexyl-1-(4-(isoquinolin-5-ylsulfonyl)piperazin-1-yl)ethan-1-one]
- IC50 (Mtb IMPDH): 0.23 ± 0.02 µM
- MIC90 [1, 2]: 31.2 µM (≈ 12.5 µg/mL)

SMILES: O=C(CC1CCC2(CC1)OCCO2)N1CCN(S(=O)(=O)c2cccc3cnccc23)CC1 [Compound 23, 2-(1,4-dioxaspiro[4.5]decan-8-yl)-1-[4-(isoquinoline-5-sulfonyl)piperazin-1-yl]ethan-1-one]
- IC50 (Mtb IMPDH): 3.3 ± 0.2 µM
- MIC90 [1, 2]: 250 µM (≈ 115 µg/mL)

SMILES: N#Cc1cccc(CC(=O)N2CCN(S(=O)(=O)c3cccc4cnccc34)CC2)c1 [Compound 24, 3-{2-[4-(isoquinoline-5-sulfonyl)piperazin-1-yl]-2-oxoethyl}benzonitrile]
- IC50 (Mtb IMPDH): 5.96 ± 0.2 µM
- MIC90 [1, 2]: 125 µM (≈ 52.6 µg/mL)

SMILES: O=C(Cc1cccc(O)c1)N1CCN(S(=O)(=O)c2cccc3cnccc23)CC1 [Compound 25, 2-(3-hydroxyphenyl)-1-[4-(isoquinoline-5-sulfonyl)piperazin-1-yl]ethan-1-one]
- IC50 (Mtb IMPDH): 4 ± 0.2 µM
- MIC90 [1, 2]: 125 µM (≈ 51.4 µg/mL)

SMILES: COc1cccc(CC(=O)N2CCN(S(=O)(=O)c3cccc4cnccc34)CC2)c1 [Compound 26, 1-[4-(isoquinoline-5-sulfonyl)piperazin-1-yl]-2-(3-methoxyphenyl)ethan-1-one]
- IC50 (Mtb IMPDH): 2.6 ± 0.2 µM
- MIC90 [1, 2]: 250 µM (≈ 106 µg/mL)

SMILES: COc1ccc(CC(=O)N2CCN(S(=O)(=O)c3cccc4cnccc34)CC2)c(OC)c1 [Compound 27, 1-[4-(isoquinoline-5-sulfonyl)piperazin-1-yl]-2-(2,4-dimethoxyphenyl)ethan-1-one]
- IC50 (Mtb IMPDH): 1.98 ± 0.1 µM
- MIC90 [1, 2]: 250 µM (≈ 114 µg/mL)

SMILES: Cc1cccc(CC(=O)N2CCN(S(=O)(=O)c3cccc4cnccc34)CC2)c1 [Compound 28, 1-(4-(isoquinolin-5-ylsulfonyl)piperazin-1-yl)-2-(m-tolyl)ethan-1-one]
- IC50 (Mtb IMPDH): 11.5 ± 0.3 µM
- MIC90 [1, 2]: 250 µM (≈ 102 µg/mL)

SMILES: O=C(Cc1ccc(F)cc1)N1CCN(S(=O)(=O)c2cccc3cnccc23)CC1 [Compound 29, 2-(4-fluorophenyl)-1-(4-(isoquinolin-5-ylsulfonyl)piperazin-1-yl)ethan-1-one]
- IC50 (Mtb IMPDH): 0.68 ± 0.05 µM
- MIC90 [1, 2]: 25 µM (≈ 10.3 µg/mL)

SMILES: O=C(Cc1ccc([N+](=O)[O-])cc1)N1CCN(S(=O)(=O)c2cccc3cnccc23)CC1 [Compound 30, 1-(4-(isoquinolin-5-ylsulfonyl)piperazin-1-yl)-2-(4-nitrophenyl)ethan-1-one]
- IC50 (Mtb IMPDH): 5.3 ± 0.2 µM
- MIC90 [1, 2]: 250 µM (≈ 110 µg/mL)

SMILES: N#Cc1cccc(NC(=O)N2CCN(S(=O)(=O)c3cccc4cnccc34)CC2)c1 [Compound 31, N-(3-cyanophenyl)-4-(isoquinolin-5-ylsulfonyl)piperazine-1-carboxamide]
- IC50 (Mtb IMPDH): 0.15 ± 0.03 µM
- MIC90 [1, 2]: 15.6 µM (≈ 6.58 µg/mL)

SMILES: O=C(Nc1cccc(C(F)(F)F)c1)N1CCN(S(=O)(=O)c2cccc3cnccc23)CC1 [Compound 32, 4-(isoquinolin-5-ylsulfonyl)-N-(3-(trifluoromethyl)phenyl)piperazine-1-carboxamide]
- IC50 (Mtb IMPDH): 0.08 ± 0.005 µM
- MIC90 [1, 2]: 62.5 µM (≈ 29 µg/mL)

SMILES: O=C(Nc1ccc(Cl)cc1)N1CCN(S(=O)(=O)c2cccc3cnccc23)CC1 [Compound 33, N-(4-chlorophenyl)-4-(isoquinolin-5-ylsulfonyl)piperazine-1-carboxamide]
- IC50 (Mtb IMPDH): 15 ± 0.5 µM
- MIC90 [1, 2]: 250 µM (≈ 108 µg/mL)

SMILES: O=C(Nc1ccc(Cl)c(C(F)(F)F)c1)N1CCN(S(=O)(=O)c2cccc3cnccc23)CC1 [Compound 34, N-(4-chloro-3-(trifluoromethyl)phenyl)-4-(isoquinolin-5-ylsulfonyl)piperazine-1-carboxamide]
- IC50 (Mtb IMPDH): 0.16 ± 0.1 µM
- MIC90 [1, 2]: 25 µM (≈ 12.5 µg/mL)

SMILES: O=C(Nc1ccc(Cl)c([N+](=O)[O-])c1)N1CCN(S(=O)(=O)c2cccc3cnccc23)CC1 [Compound 35, N-(4-chloro-3-nitrophenyl)-4-(isoquinolin-5-ylsulfonyl)piperazine-1-carboxamide]
- IC50 (Mtb IMPDH): 5.6 ± 0.2 µM
- MIC90 [1, 2]: 12.5 µM (≈ 5.95 µg/mL)

SMILES: O=C(Nc1ccc(F)c(Cl)c1)N1CCN(S(=O)(=O)c2cccc3cnccc23)CC1 [Compound 36, N-(3-chloro-4-fluorophenyl)-4-(isoquinolin-5-ylsulfonyl)piperazine-1-carboxamide]
- IC50 (Mtb IMPDH): 0.042 ± 0.002 µM
- MIC90 [1, 2]: 31.2 µM (≈ 14 µg/mL)

SMILES: O=C(Nc1cccc(Cl)c1Cl)N1CCN(S(=O)(=O)c2cccc3cnccc23)CC1 [Compound 37, N-(2,3-dichlorophenyl)-4-(isoquinolin-5-ylsulfonyl)piperazine-1-carboxamide]
- IC50 (Mtb IMPDH): 0.9 ± 0.06 µM
- MIC90 [1, 2]: 125 µM (≈ 58.2 µg/mL)

SMILES: Cc1ccc(NC(=O)N2CCN(S(=O)(=O)c3cccc4cnccc34)CC2)cc1Cl [Compound 38, N-(3-chloro-4-methylphenyl)-4-(isoquinolin-5-ylsulfonyl)piperazine-1-carboxamide]
- IC50 (Mtb IMPDH): 1.6 ± 0.2 µM
- MIC90 [1, 2]: 100 µM (≈ 44.5 µg/mL)
